Measured values taken from US12472272B2, “Radiolabelled compounds for diagnosis or treatment of prostate-specific membrane antigen- expressing cancer” (PROVINCIAL HEALTH SERVICES AUTHORITY, priority 2019, dated 2025).
Entries after “also recorded” stand apart in the source; their conditions may differ.

Legend:
[1] = system: PSMA-expressing cancer xenografts (LNCaP); assay: Biodistribution of ^177Lu-labeled HTK03041; type: in vivo, mice; settings: for Tissue (% ID/g): Salivary / Tissue (% ID/g): Seminal / Tissue (% ID/g): Spleen / Tissue (% ID/g): Stomach / Tissue (% ID/g): Tail / Tissue (% ID/g): Testes / Tissue (% ID/g): Thyroid / Tissue (% ID/g): Tumor / Tissue (% ID/g): Urine / tumor-to-background contrast ratio Tumor: Blood / tumor-to-background contrast ratio Tumor: Muscle / tumor-to-background contrast ratio Tumor: kidney / Tissue (% ID/g): Adrenal glands / Tissue (% ID/g): Blood / Tissue (% ID/g): Bone / Tissue (% ID/g): Brain / Tissue (% ID/g): Fat / Tissue (% ID/g): Heart / Tissue (% ID/g): Intestine / Tissue (% ID/g): Kidneys / Tissue (% ID/g): Lacrimal / Tissue (% ID/g): Liver / Tissue (% ID/g): Lungs / Tissue (% ID/g): Muscle / Tissue (% ID/g): Pancreas: ^177Lu
Experimental: (§1) Imaging and biodistribution experiments were performed using NODSCID 1L2RγKO male mice. Mice were anesthetized by inhalation with 2% isoflurane in oxygen, and implanted subcutaneously with 1×10^7 LNCaP cells behind left shoulder. Mice were imaged or used in biodistribution studies when the tumor grew up to reach 5-8 mm in diameter during 5-6 weeks.
(§2) SPECT/CT imaging experiments were conducted using the MlLabs (Utrecht, the Netherlands) U-SPECT-II/CT scanner. Each tumor bearing mouse was injected with ˜37 MBq of ^177Lu-labeled HTK03041 through the tail vein under anesthesia (2% isoflurane in oxygen). The mice were allowed to recover and roam freely in their cage and imaged at 1, 4, 24, 72 and 120 hours after injection. At each time point, the mice were sedated again and positioned in the scanner. A 5-min CT scan was conducted first for anatomical reference with a voltage setting at 60 kV and current at 615 μA followed by a 60-min static emission scan acquired in list mode using an ultra-high resolution multi-pinhole rat-mouse (1 mm pinhole size) collimator. Data were reconstructed using the U-SPECT II software with a 20% window width on three energy windows. The photopeak window was centered at 208 keV, with lower scatter and upper scatter windows centered at 170 and 255 keV, respectively. Reconstruction parameters used maximum-likelihood expectation maximization (3 iterations), pixel-based ordered subset expectation maximization (16 subsets), and a post-processing filter (Gaussian blurring) of 0.5 mm. Images were decay corrected to injection time in PMOD (PMOD Technologies, Switzerland) then converted to DICOM for qualitative visualization in Inveon Research Workplace (Siemens Medical Solutions USA, Inc.).
For biodistribution studies, the mice were injected with the radiotracer as described above. At predetermined time points (1 or 3 h for ^68Ga studies; 1, 4, 24, 72, or 120 h for ^177Lu studies), the mice was anesthetized with 2% isoflurane inhalation, and euthanized by CO2 inhalation. Blood was withdrawn immediately from the heart, and the organs/tissues of interest were collected. The collected organs/tissues were weighed and counted using a Perkin Elmer (Waltham, MA) Wizard2 2480 gamma counter. The uptake in each organ/tissue was normalized to the injected dose using a standard curve, and expressed as the percentage of the injected dose per gram of tissue (% ID/g).

LNCaP tumors = assay: SPECT/CT imaging of ^177Lu-labeled HTK03041; type: in vivo, mice; settings: 1 h to 120 h post-injection, FIG. 4
Experimental: as §1
as §2, with “Reconstruction parameters used maximum-likelihood expectation maximization (3 iterations), pixel-based ordered subset expectation maximization (16 subsets), and a post-processing filter (Gaussian blurring) of 0.5 mm. Images were decay corrected to injection time in PMOD (PMOD Technologies, Switzerland) then converted to DICOM for qualitative visualization in Inveon Research Workplace (Siemens Medical Solutions USA, Inc.).” left out

O=C([O-])CN1CCN(CC(=O)[O-])CCN(CC(=O)NC[C@H]2CC[C@H](C(=O)N[C@@H](Cc3c4ccccc4cc4ccccc34)C(=O)NCCCC[C@H](NC(=O)N[C@@H](CCC(=O)O)C(=O)O)C(=O)O)CC2)CCN(CC(=O)[O-])CC1.[177Lu+3] [^177Lu-HTK03041]
Tissue (% ID/g): Salivary ([1]; 24 h post-injection): 0.40 ± 0.06 % ID/g
Tissue (% ID/g): Seminal ([1]; 24 h post-injection): 0.23 ± 0.13 % ID/g
Tissue (% ID/g): Spleen ([1]; 24 h post-injection): 0.59 ± 0.19 % ID/g
Tissue (% ID/g): Stomach ([1]; 24 h post-injection): 0.18 ± 0.04 % ID/g
Tissue (% ID/g): Tail ([1]; 24 h post-injection): 0.34 ± 0.17 % ID/g
Tissue (% ID/g): Testes ([1]; 24 h post-injection): 0.40 ± 0.08 % ID/g
Tissue (% ID/g): Thyroid ([1]; 24 h post-injection): 0.47 ± 0.09 % ID/g
Tissue (% ID/g): Tumor ([1]; 24 h post-injection): 19.8 ± 6.13 % ID/g
Tissue (% ID/g): Urine ([1]; 24 h post-injection): 23.8 ± 8.50 % ID/g
tumor-to-background contrast ratio Tumor: Blood ([1]; 24 h post-injection): 282 ± 82.6
tumor-to-background contrast ratio Tumor: Muscle ([1]; 24 h post-injection): 142 ± 30.1
tumor-to-background contrast ratio Tumor: kidney ([1]; 24 h post-injection): 0.97 ± 0.15
Tissue (% ID/g): Adrenal glands ([1]; 72 h post-injection): 0.12 ± 0.05 % ID/g
Tissue (% ID/g): Blood ([1]; 72 h post-injection): 0.02 ± 0.00 % ID/g
Tissue (% ID/g): Bone ([1]; 72 h post-injection): 0.02 ± 0.01 % ID/g
Tissue (% ID/g): Brain ([1]; 72 h post-injection): 0.01 ± 0.00 % ID/g
Tissue (% ID/g): Fat ([1]; 72 h post-injection): 0.03 ± 0.01 % ID/g
Tissue (% ID/g): Heart ([1]; 72 h post-injection): 0.07 ± 0.02 % ID/g
Tissue (% ID/g): Intestine ([1]; 72 h post-injection): 0.13 ± 0.04 % ID/g
Tissue (% ID/g): Kidneys ([1]; 72 h post-injection): 1.27 ± 0.58 % ID/g
Tissue (% ID/g): Lacrimal ([1]; 72 h post-injection): 0.01 ± 0.01 % ID/g
Tissue (% ID/g): Liver ([1]; 72 h post-injection): 0.13 ± 0.05 % ID/g
Tissue (% ID/g): Lungs ([1]; 72 h post-injection): 0.14 ± 0.04 % ID/g
Tissue (% ID/g): Muscle ([1]; 72 h post-injection): 0.02 ± 0.01 % ID/g
Tissue (% ID/g): Pancreas ([1]; 72 h post-injection): 0.05 ± 0.02 % ID/g
Tissue (% ID/g): Salivary ([1]; 72 h post-injection): 0.08 ± 0.03 % ID/g
Tissue (% ID/g): Seminal ([1]; 72 h post-injection): 0.03 ± 0.01 % ID/g
Tissue (% ID/g): Spleen ([1]; 72 h post-injection): 0.12 ± 0.04 % ID/g
Tissue (% ID/g): Stomach ([1]; 72 h post-injection): 0.19 ± 0.09 % ID/g
Tissue (% ID/g): Tail ([1]; 72 h post-injection): 0.13 ± 0.08 % ID/g
Tissue (% ID/g): Testes ([1]; 72 h post-injection): 0.08 ± 0.02 % ID/g
Tissue (% ID/g): Thyroid ([1]; 72 h post-injection): 0.09 ± 0.02 % ID/g
Tissue (% ID/g): Tumor ([1]; 72 h post-injection): 15.2 ± 4.72 % ID/g
Tissue (% ID/g): Urine ([1]; 72 h post-injection): 0.67 ± 0.22 % ID/g
tumor-to-background contrast ratio Tumor: Blood ([1]; 72 h post-injection): 805 ± 164
tumor-to-background contrast ratio Tumor: Muscle ([1]; 72 h post-injection): 647 ± 119
tumor-to-background contrast ratio Tumor: kidney ([1]; 72 h post-injection): 13.1 ± 3.75
Tissue (% ID/g): Adrenal glands ([1]; 120 h post-injection): 0.11 ± 0.11 % ID/g
Tissue (% ID/g): Blood ([1]; 120 h post-injection): 0.01 ± 0.01 % ID/g
Tissue (% ID/g): Bone ([1]; 120 h post-injection): 0.02 ± 0.00 % ID/g
Tissue (% ID/g): Brain ([1]; 120 h post-injection): 0.01 ± 0.00 % ID/g
Tissue (% ID/g): Fat ([1]; 120 h post-injection): 0.05 ± 0.09 % ID/g
Tissue (% ID/g): Heart ([1]; 120 h post-injection): 0.06 ± 0.02 % ID/g
Tissue (% ID/g): Intestine ([1]; 120 h post-injection): 0.06 ± 0.03 % ID/g
Tissue (% ID/g): Kidneys ([1]; 120 h post-injection): 1.06 ± 0.74 % ID/g
Tissue (% ID/g): Lacrimal ([1]; 120 h post-injection): 0.01 ± 0.01 % ID/g
Tissue (% ID/g): Liver ([1]; 120 h post-injection): 0.13 ± 0.04 % ID/g
Tissue (% ID/g): Lungs ([1]; 120 h post-injection): 0.10 ± 0.04 % ID/g
Tissue (% ID/g): Muscle ([1]; 120 h post-injection): 0.02 ± 0.02 % ID/g
Tissue (% ID/g): Pancreas ([1]; 120 h post-injection): 0.04 ± 0.01 % ID/g
Tissue (% ID/g): Salivary ([1]; 120 h post-injection): 0.06 ± 0.04 % ID/g
Tissue (% ID/g): Seminal ([1]; 120 h post-injection): 0.02 ± 0.01 % ID/g
Tissue (% ID/g): Spleen ([1]; 120 h post-injection): 0.22 ± 0.11 % ID/g
Tissue (% ID/g): Stomach ([1]; 120 h post-injection): 0.05 ± 0.04 % ID/g
Tissue (% ID/g): Tail ([1]; 120 h post-injection): 0.11 ± 0.07 % ID/g
Tissue (% ID/g): Testes ([1]; 120 h post-injection): 0.06 ± 0.01 % ID/g
Tissue (% ID/g): Thyroid ([1]; 120 h post-injection): 0.08 ± 0.03 % ID/g
Tissue (% ID/g): Tumor ([1]; 120 h post-injection): 22.3 ± 6.90 % ID/g
Tissue (% ID/g): Urine ([1]; 120 h post-injection): 0.29 ± 0.04 % ID/g
tumor-to-background contrast ratio Tumor: Blood ([1]; 120 h post-injection): 1670 ± 272
tumor-to-background contrast ratio Tumor: Muscle ([1]; 120 h post-injection): 1215 ± 512
tumor-to-background contrast ratio Tumor: kidney ([1]; 120 h post-injection): 25.4 ± 9.59
tumor uptake over the investigated time points ([1]; up to 120 h post-injection): remained at the similar level throughout the investigated time points; also recorded: sustained over the course of the study
uptake in background tissues including kidneys in SPECT images (LNCaP tumors): cleared quickly over time
uptake in tumor in SPECT images (LNCaP tumors): sustained over the course the study
